Data published in PMC7129073 (Clinical Microbiology and Infection, 2015).
Values after ≈ are worked out from the molar mass of the structure shown.

Tests used:
F. necrophorum = test: E-test, 13 clinical isolates; format: cell-based, Fusobacterium necrophorum; details: for MIC50 / MIC90: Fusobacterium necrophorum
Escherichia coli (ECO) = test: Broth microdilution; format: cell-based; details: 2001
K. pneumoniae [1] = test: E-test susceptibility; format: cell-based, Klebsiella pneumoniae
S. pneumoniae [2] = test: MIC of invasive strains, Saint George Hospital 2001–2004; format: cell-based, Streptococcus pneumoniae
S. pneumoniae [3] = format: cell-based, Streptococcus pneumoniae
Pseudomonas spp. = test: MIC; format: cell-based
nontyphoidal Salmonella = test: Agar dilution, isolates from chickens 1998–2004; format: cell-based, Salmonella spp.; details: Salmonella
M. morganii = test: Italian survey of severe infections 2003, MIC; format: cell-based, Morganella morganii
Shigella spp. = test: Disk diffusion, stool isolates Tehran; format: cell-based; details: 96 isolates
Acinetobacter = test: Disk diffusion; format: cell-based; details: 37 isolates selected as resistant to beta-lactams
H. influenzae = format: cell-based, Haemophilus influenzae
S. marcescens = test: Italian survey of severe infections 2003, MIC; format: cell-based, Serratia marcescens
E. coli [4] = test: E-test susceptibility; format: cell-based, Escherichia coli
P. stuartii [5] = test: Italian survey of severe infections 2003, MIC; format: cell-based, Providencia stuartii
S. aureus [6] = test: Italian survey of severe infections 2003, MIC; format: cell-based, Staphylococcus aureus
Staphylococcus aureus [7] = test: EARSS Ireland, invasive isolates; format: cell-based; details: Jan'99–Jun'04, 4786 isolates
CoNS = test: Methicillin resistance, PBSCT patients; format: cell-based, Coagulase-negative Staphylococcus
S. aureus [8] = test: Methicillin resistance, PBSCT patients; format: cell-based, Staphylococcus aureus
[9] = system: Staphylococcus epidermidis; test: Broth microdilution and E-test, diabetic foot ulcers; format: cell-based; details: 53 isolates
Staphylococcus aureus [10] = test: as above; format: cell-based; details: 81 isolates
S. epidermidis = test: Italian survey of severe infections 2003, MIC; format: cell-based, Staphylococcus epidermidis
E. coli [11] = test: SMART 2003 Europe, microdilution; format: cell-based, Escherichia coli; details: 1106 isolates
S. pneumoniae (SPN) = test: NCCLS broth microdilution, fluoroquinolones 1999–2004; format: cell-based, Streptococcus pneumoniae; details: Streptococcus pneumoniae, read-out: MIC90 during the six years, 1999–2004
[12] = system: S. enterica serotype Typhimurium; test: Susceptibility testing of CipR strains from children and exotic pets; format: cell-based; details: Salmonella enterica
qnrA = qnrA transcription in E. coli transconjugants after quinolone induction; format: cell-based, Escherichia coli; details: 0.4 × MIC
[13] = system: S. typhimurium (strain SL1344); test: Cell envelope proteome; format: cell-based, Salmonella typhimurium; details: 31.2 ng/ml; control 296 ± 77; mean + 1 SD
K. pneumoniae [14] = test: MIC; format: cell-based, Klebsiella pneumoniae
[15] = system: P. aeruginosa strains from CF sputa; test: O-serotyping; format: cell-based, Pseudomonas aeruginosa; details: exposure to 1/2–1/16 MIC (ceftazidime) or 1/2–1/8 MIC (ciprofloxacin)
[16] = system: Pseudomonas aeruginosa (PA); test: MIC; format: cell-based
S. pneumoniae [17] = test: Broth microdilution; format: cell-based, Streptococcus pneumoniae; details: 275 isolates
P. stuartii [18] = test: E-test MIC and mutant prevention concentration, qnr transconjugand and mutants; details: Providencia stuartii
S. aureus [19] = test: NCCLS broth microdilution, SSTI isolates; format: cell-based; details: Staphylococcus aureus
Escherichia coli = test: Vitek 2 susceptibility, urine isolates of children; format: cell-based
Enterobacteriaceae = test: SMART 2003 Europe, microdilution; format: cell-based; details: 1948 isolates
PSA = details: background statement, no reference given; cited from earlier work
P.aeruginosa = test: Italian survey of severe infections 2003, MIC; format: cell-based, Pseudomonas aeruginosa
[20] = system: Pseudomonas aeruginosa (PSA); test: Vitek 2 susceptibility, urine isolates of children; format: cell-based; details: both departments
[21] = system: viridans group streptococci (VGS); test: MIC; format: cell-based
B.cepacia = test: Italian survey of severe infections 2003, MIC; format: cell-based, Burkholderia cepacia
N. farcinica strain = test: E-test on Mueller-Hinton agar; format: cell-based; details: Nocardia farcinica
Nocardia spp. [22] = test: Time-kill at peak-serum concentrations, seven strains; format: cell-based; details: of seven strains; 24, 72 h
Nocardia spp. [23] = test: E-test on Mueller Hinton agar, 81 clinical isolates; format: cell-based; details: Nocardia
P. aeruginosa = format: cell-based, Pseudomonas aeruginosa
Gram-negative rods = test: Microscan MIC, blood culture isolates; format: cell-based
Enterobacter spp = test: E-test susceptibility; format: cell-based
Klebsiella = test: SMART 2003 Europe, microdilution; format: cell-based, Klebsiella spp.; details: 341 isolates
K. oxytoca = test: E-test susceptibility; format: cell-based, Klebsiella oxytoca
[24] = system: inducible Enterobacteriaceae; test: SMART 2003, intraabdominal isolates; format: cell-based
A. baumannii = test: Italian survey of severe infections 2003, MIC; format: cell-based, Acinetobacter baumannii
[25] = ICU, SRGA breakpoints, tigecycline tentative S ≤2 μg/ml

SMILES: CO/N=C(\C(=O)N[C@@H]1C(=O)N2C(C(=O)O)=C(COC(C)=O)CS[C@H]12)c1csc(N)n1 [cefotaxime]
- MIC range (F. necrophorum): 0.016 to 256 µg/mL
- MIC50 (F. necrophorum): 0.016 µg/mL (≈ 0.0351 µM)
- MIC90 (F. necrophorum): 0.064 µg/mL (≈ 0.141 µM)
- susceptible (Escherichia coli (ECO); NAL-resistant isolates): 89.9%
- susceptible (Escherichia coli (ECO); NAL-susceptible isolates): 99.2%
- Susceptible isolates (K. pneumoniae [1]; ICU): 98%
- Susceptible isolates (K. pneumoniae [1]; non ICU): 100%
- % S (S. pneumoniae [2]): 95.2%
- %R (S. pneumoniae [2]): 4.8%
- resistant (S. pneumoniae [3]): 0%
- resistant strains (Pseudomonas spp.): 90%
- MIC50 (nontyphoidal Salmonella; read-out: MIC 50/90): 0.12 to 0.25 µg/mL (≈ 0.263 to 0.549 µM)
- resistance (M. morganii): 14,3%
- sensitive (Shigella spp.): 100%
- resistant isolates (Acinetobacter): 75.7%
- resistant (H. influenzae): 0%
- resistance (S. marcescens): 13.2%
- Susceptible isolates (E. coli [4]; [25]): 98%
- Susceptible isolates (E. coli [4]; non ICU): 99%
- resistance (P. stuartii [5]): 84.5%

SMILES: COc1cccc(OC)c1C(=O)N[C@@H]1C(=O)N2[C@@H]1SC(C)(C)[C@@H]2C(=O)O [methicillin]
- resistance (S. aureus [6]): 37.1%
- resistant isolates (Staphylococcus aureus [7]): 41.4%
- resistance (CoNS): 86.5%
- resistance (S. aureus [8]): 47.4%
- resistant isolates [9]: 35.8%
- resistant isolates (Staphylococcus aureus [10]): 27.2%
- resistance (S. epidermidis): 86.7%

SMILES: O=C(O)c1cn(C2CC2)c2cc(N3CCNCC3)c(F)cc2c1=O [ciprofloxacin]
- per cent susceptible (E. coli [11]): 80%
- MIC90 (S. pneumoniae (SPN)): 2 µg/mL (≈ 6.04 µM)
- MIC [12]: ≥ 16 µg/mL
- increase of qnrA transcription over baseline (qnrA; transconjugant from 1960): 2.6 times
- increase of qnrA transcription over baseline (qnrA; transconjugant from N5): 5.1 times
- increase of qnrA transcription over baseline (qnrA; transconjugant from UAB1): 4.3 times
- number of proteins detected in 2D gels [13]: 153 ± 36
- susceptibility category (K. pneumoniae [14]; BSAC): resistant
- MIC90 (nontyphoidal Salmonella): ~0.25 µg/mL (≈ 0.754 µM)
- change of agglutination type of nine monoagglutinable strains [15]: five out of nine strains
- isolates with MPC ≤ 2 μg/ml [16]: 79%
- MPC range ([16]; 10 billion organisms on agar): 1 to 4 µg/mL
- MIC range ([16]; patients P1 and P2): 0.031 to 1 µg/mL
- sensitive (Shigella spp.): 100%
- intermediate susceptible (H. influenzae): 2.4%
- Susceptibility (S. pneumoniae [17]): 94.5%
- MIC (P. stuartii [18]; ATCC29914, P. stuartii ATCC 29914 RifR): 0.03 µg/mL (≈ 0.0905 µM)
- MIC (P. stuartii [18]; ATCC29914, mutants of ATCC 29914 RifR, SCV, median): 3 µg/mL (≈ 9.05 µM)
- MIC (P. stuartii [18]; TCPs 123 (qnr-positive transconjugand)): 0.5 µg/mL (≈ 1.51 µM)
- MIC (P. stuartii [18]; mutants of TCPs 123, SCV, median): > 32 µg/mL
- MIC (P. stuartii [18]; mutants of TCPs 123, normal colony size, median): 6 µg/mL (≈ 18.1 µM)
- MIC50 (S. aureus [19]): 0.25 µg/mL (≈ 0.754 µM)
- susceptibility rate (Escherichia coli; paediatric surgical unit (PSU)): 96%
- susceptibility rate (Escherichia coli; paediatric units (PU)): 100%
- per cent susceptible (Enterobacteriaceae): 84%

SMILES: C[C@@H](O)[C@H]1C(=O)N2C(C(=O)O)=C(SCCN=CN)C[C@H]12 [imipenem]
- per cent susceptible (E. coli [11]): 100%
- MIC50 (PSA): 1 µg/mL (≈ 3.34 µM)
- MIC range (F. necrophorum): 0.004 to 32 µg/mL
- MIC50 (F. necrophorum): 1.5 µg/mL (≈ 5.01 µM)
- MIC90 (F. necrophorum): > 32 µg/mL
- resistance (P.aeruginosa): 11.9%
- Susceptible isolates [20]: 74-100%
- MIC50 [21]: 0.015 µg/mL (≈ 0.0501 µM)
- MIC90 [21]: 0.12 µg/mL (≈ 0.401 µM)
- Susceptible isolates (K. pneumoniae [1]; ICU): 100%
- Susceptible isolates (K. pneumoniae [1]; non ICU): 99%
- resistance (B.cepacia): 71.4%
- MIC (N. farcinica strain): > 32 µg/mL
- strains with bactericidal activity (≥3 log10 cfu/ml decrease) (Nocardia spp. [22]): 4 strains
- % S (S. pneumoniae [2]): 100%
- %R (S. pneumoniae [2]): 0%
- MIC (K. pneumoniae [14]; Klebsiella pneumoniae): 1 to 8 µg/mL (≈ 3.34 to 26.7 µM)
- MIC50 (Nocardia spp. [23]): 0.5 µg/mL (≈ 1.67 µM)
- MIC90 (Nocardia spp. [23]): 2 µg/mL (≈ 6.68 µM)
- resistant isolates (Acinetobacter): 0.0%
- resistant (P. aeruginosa): 42%
- susceptible strains (n/N) (Gram-negative rods): 15/16
- Susceptible isolates (Enterobacter spp; ICU): 96%
- Susceptible isolates (Enterobacter spp; non ICU): 98%
- resistant (H. influenzae): 0%
- Susceptible isolates (E. coli [4]; [25]): 99%
- Susceptible isolates (E. coli [4]; non ICU): 100%
- per cent susceptible (Klebsiella): 99%
- Susceptible isolates (K. oxytoca; ICU): 100/100%
- Susceptible isolates (K. oxytoca; non ICU): 100/100%
- % susceptible ([24]; A/P (N = 200)): 99%
- % susceptible ([24]; EU (N = 354)): 98%
- % susceptible ([24]; LA (N=113)): 98%
- % susceptible ([24]; NA (N = 163)): 98%
- resistance (A. baumannii): 22.5%
- per cent susceptible (Enterobacteriaceae): >99%
